Measurements published in patent US9079854B2 (priority 2007, dated 2015).
Read-outs that look alike come from different tables or passages of the source.

Tests used:
hCB2 receptor = target: T1, hCB2 receptor (Homo sapiens, UniProt P34972); assay: CB2 functional assay, [35S]GTP-γ-S binding; assay type: biochemical; conditions: for Emax at 3 µM: read-out: [35S]GTP-γ-S hCB2 Emax (%), Table 9 footnote a: Efficacy determined at 3 μM, relative to CP 55,940
T1 construct: purchased ES-111-MG; host or cells: CHO membrane extracts
T1 sequence (P34972 whole entry): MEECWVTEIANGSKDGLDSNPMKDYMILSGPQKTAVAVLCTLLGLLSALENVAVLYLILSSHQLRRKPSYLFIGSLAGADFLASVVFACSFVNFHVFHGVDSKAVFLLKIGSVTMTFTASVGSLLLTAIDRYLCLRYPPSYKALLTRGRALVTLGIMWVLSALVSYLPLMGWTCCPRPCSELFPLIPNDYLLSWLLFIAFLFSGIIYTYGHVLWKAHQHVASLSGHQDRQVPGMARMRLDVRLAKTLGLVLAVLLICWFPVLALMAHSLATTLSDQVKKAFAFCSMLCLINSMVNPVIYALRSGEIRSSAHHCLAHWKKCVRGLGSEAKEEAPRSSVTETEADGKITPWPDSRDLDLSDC
Experimental: (§1) A dose response curve was generated at eight concentrations in duplicate on CB1 and CB2 in light of reference agonists.
(§2) Membranes (CB1, ES-110-MG or CB2, ES-111-MG) are mixed with GDP (volume:volume) and incubated for at least […] on ice. In parallel, […] are mixed with the beads (volume:volume) just before starting the reaction. The following reagents are successively added in the wells of an Optiplate: 50 μl of ligand, 20 μl of the membranes:GDP mix, 10 μl of assay buffer for agonist testing and 20 μl of the […]: beads mix. The plates are covered with a topseal, shaken on an orbital shaker for 2 min, and then incubated between 30 to 60 min at room temperature. Then the plates are centrifuged for 10 min at 2000 rpm, incubated at room temperature between 1 to 4 hours and counted for 1 min with a PerkinElmer TopCount reader.
(§3) Functional activity for acyl hydrazone was evaluated using [^35S]GTP-γ-S assay in CHO membrane extracts expressing recombinant hCB1 receptor or hCB2 receptor. The assay relies on the binding of [^35S]GTP-γ-S, a radiolabeled nonhydrolyzable GTP analogue, to the G protein upon binding of an agonist of the G-protein-coupled receptor. In this system, agonists stimulate [^35S]GTP-γ-S binding whereas neutral antagonist have no effect and inverse agonists decrease [^35S]GTP-γ-S basal binding.
(§4) CB1 and CB2 assay data are presented as the mean of two determinations. […] For replicate determinations, the maximum variability tolerated in the test was of ±20% around the average of the replicates.

[1] = target: T2, human CB1 (hCB1) receptor (Homo sapiens, UniProt P21554); assay: CB1 binding assay, competitive binding of [3H]CP 55940; parameters: % Inhibition of Control Specific Binding CB1: concentration or dose not given beside the values; conditions: for inhibition at 1 µM: CHO membranes
T2 construct: expressed in transfected cells; host or cells: CHO (Chinese hamster ovary) cells, membranes
T2 sequence (P21554 whole entry): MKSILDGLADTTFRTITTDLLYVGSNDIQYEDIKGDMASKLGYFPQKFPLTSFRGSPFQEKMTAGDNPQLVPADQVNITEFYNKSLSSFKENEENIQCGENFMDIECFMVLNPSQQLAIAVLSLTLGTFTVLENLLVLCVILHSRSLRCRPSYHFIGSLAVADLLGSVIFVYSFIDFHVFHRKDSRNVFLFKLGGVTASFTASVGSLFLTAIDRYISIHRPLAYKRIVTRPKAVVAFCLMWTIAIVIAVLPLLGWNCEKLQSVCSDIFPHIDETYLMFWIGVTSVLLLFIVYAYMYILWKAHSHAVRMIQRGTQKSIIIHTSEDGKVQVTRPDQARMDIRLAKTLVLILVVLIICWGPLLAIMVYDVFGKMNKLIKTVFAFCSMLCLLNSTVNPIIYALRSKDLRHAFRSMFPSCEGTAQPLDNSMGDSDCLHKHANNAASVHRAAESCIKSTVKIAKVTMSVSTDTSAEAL
Experimental: Cell membrane homogenates (25 μg protein) are incubated for 120 min at 37° C. with 0.5 nM [^3H]CP 55940 (the reference standard [Rinaldi-Carmona, 1996 #1320]) in the absence or presence of the test compound in a buffer containing 50 mM Tris HCl (pH 7.4), 5 mM MgCl2, 2.5 mM EDTA, and 0.3% bovine serum albumin (BSA). […]
(§5) […] [^3H]-CP55940 at a concentration of 0.5 nM and [^3H]-WIN55212 at a concentration of 0.8 nM were used as radioligands for hCB1 and hCB2 assays, respectively. The results are expressed as a percent inhibition of control specific binding. Compounds which displaced the radioligand by more than 50% for either hCB1 or hCB2 receptors were arbitrary chosen for functional activity determination.

[2] = target: T3, human CB2 (hCB2) receptor (Homo sapiens, UniProt P34972); assay: CB2 binding assay, competitive binding of [3H]WIN 55212-2; conditions: for inhibition at 1 µM: read-out: % inhibition hCB2 receptor, at 1 μM, CHO membranes
T3 construct: expressed in transfected cells; host or cells: CHO (Chinese hamster ovary) cells, membranes
T3 sequence (P34972 whole entry): as the sequence (P34972 whole entry) above
Experimental: Cell membrane homogenates (15 μg protein) are incubated for 120 min at 37° C. with 0.8 nM [^3H]WIN 55212-2 (the reference standard [Munro, 1993 #1321]) in the absence or presence of the test compound in a buffer containing 50 mM HEPES/Tris HCL (pH 7.4), 5 mM MgCl2, 2.5 mM EGTA, and 0.1% BSA. Nonspecific binding is determined in the presence of 10 μM WIN 55212-2. After being incubated, the samples are filtered rapidly under vacuum through glass fiber filters (GF/B; Packard) presoaked with 0.3% PEI and rinsed several times with ice-cold buffer containing 50 mM Tris HCl (pH 7.4) and 0.5% BSA using a 96-sample cell harvester (Unifilter; Packard). The filters are dried then counted for radioactivity in a scintillation counter (Topcount; Packard) using a scintillation cocktail (Microscint 0; Packard). The results are expressed as a percentage of the inhibition of the control radioligand-specific binding. The reference standard compounds are tested in each experiment at several concentrations to obtain a competition curve from which its IC50 is calculated.
as §5

CB1 = CB1 (Homo sapiens, UniProt P21554); assay: CB1 functional assay, [35S]GTP-γ-S binding; assay type: biochemical; parameters: purchased ES-110-MG; host or cells: CHO membrane extracts
Sequence of CB1 (P21554 whole entry): as the sequence (P21554 whole entry) above
Experimental: as §1, §2, §3, §4

[3] = Table 10, repeated experiment, read-out: [35S]GTP-γ-S hCB2 EC50
[4] = Table 9, mean of two determinations, read-out: [35S]GTP-γ-S hCB2 EC50 (nM ± SEM)
[5] = Table 9, relative to the efficacy of CP 55,940
[6] = specific binding of [3H]-CP55940
[7] = specific binding of [3H]-WIN55212-2
[8] = Table 9, mean of two determinations, read-out: [35S]GTP-γ-S hCB1 EC50 (nM ± SEM)
[9] = Table 7, relative to the efficacy of CP55940

## COc1ccc2c(c1)N(Cc1ccccc1)C(=O)/C2=N\NC(=O)c1ccccc1 [Example 38, N′-[(3Z)-1-benzyl-6-methoxy-2-oxo-1,2-dihydro-3H-indol-3-ylidene]benzohydrazide]
hCB2 receptor; Table 10, repeated experiment
  Emax: -96%
hCB2 receptor; [3]
  EC50: 102 nM

## CCCCN1C(=O)/C(=N\NC(=O)c2ccccc2)c2ccccc21 [Example 22, N′-[(3Z)-1-(1-butyl)-2-oxo-1,2-dihydro-3H-indol-3-ylidene]benzohydrazide]
hCB2 receptor; [4]
  EC50: 40.1 ± 1.5 nM
hCB2 receptor; [5]
  Emax: 98.9%
[1]; [6]
  inhibition at 1 µM: 86 ± 2.4%
[2]; [7]
  inhibition at 1 µM: 70 ± 2.4%
CB1; read-out: [35S]GTP-γ-S hCB1 Emax (%), Table 9 footnote a: Efficacy determined at 3 μM, relative to CP 55,940
  Emax at 3 µM: 69%

## CCCCCN1C(=O)/C(=N\NC(=O)c2ccccc2)c2ccccc21 [Example 23, N′-[(3Z)-1-(1-pentyl)-2-oxo-1,2-dihydro-3H-indol-3-ylidene]benzohydrazide]
hCB2 receptor; [4]
  EC50: 240 ± 3.2 nM
hCB2 receptor; [5]
  Emax: 68.5%
[1]; [6]
  inhibition at 1 µM: 95 ± 0.9%
[2]; [7]
  inhibition at 1 µM: 80 ± 0.9%
CB1; [8]
  EC50: 314.1 ± 1.6 nM
CB1; [5]
  Emax: 95.1%

## CCCCCCN1C(=O)/C(=N\NC(=O)c2ccccc2)c2cc(F)ccc21 [Example 33, N′-[(3Z)-5-fluoro-1-hexyl-2-oxo-1,2-dihydro-3H-indol-3-ylidene]benzohydrazide]
hCB2 receptor; [4]
  EC50: 186.9 ± 1.7 nM
hCB2 receptor; [5]
  Emax: 33.8%
[1]; [6]
  inhibition at 1 µM: 57 ± 0.7%
[2]; [7]
  inhibition at 1 µM: 46 ± 1.7%

## CCCCCCN1C(=O)/C(=N/NC(=O)OC(C)(C)C)c2ccccc21 [Example 15, tert-butyl (2E)-2-(1-hexyl-2-oxo-1,2-dihydro-3H-indol-3-ylidene)hydrazinecarboxylate]
hCB2 receptor; [35S]GTP-γ-S
  functional activity on CB2 receptor (in words): failed to exhibited functional activity
hCB2 receptor
  Emax at 3 µM: 23.4%
[1]; [6]
  inhibition at 1 µM: 75 ± 0.1%
[2]; [7]
  inhibition at 1 µM: 27 ± 3.7%
CB1; [35S]GTP-γ-S
  functional activity on CB1 receptor (in words): failed to exhibited functional activity

## CCCN1C(=O)/C(=N\NC(=O)c2ccccc2)c2ccccc21 [Example 21, N′-[(3Z)-1-(1-propyl)-2-oxo-1,2-dihydro-3H-indol-3-ylidene]benzohydrazide]
hCB2 receptor; [4]
  EC50: 200.7 ± 1.5 nM
hCB2 receptor; [5]
  Emax: 61.4%
[1]; [6]
  inhibition at 1 µM: 43 ± 1.2%
[2]; [7]
  inhibition at 1 µM: 32 ± 3.6%

## CCCCCN1C(=O)/C(=N\NC(=O)c2ccccc2)c2ccc(OC)cc21 [Example 39, N′-[(3Z)-6-methoxy-1-pentyl-2-oxo-1,2-dihydro-3H-indol-3-ylidene]benzohydrazide]
hCB2 receptor; Table 10, repeated experiment
  Emax: -108%
hCB2 receptor; [3]
  EC50: 5.8 nM

## COc1ccc2c(c1)N(CCC1CCCCC1)C(=O)/C2=N\NC(=O)c1ccccc1 [Example 41, N′-[(3Z)-1-(2-cyclohexylethyl)-6-methoxy-2-oxo-1,2-dihydro-3H-indol-3-ylidene]benzohydrazide]
hCB2 receptor; Table 10, repeated experiment
  Emax: -104%
hCB2 receptor; [3]
  EC50: 540 nM

## O=C(N/N=C1\C(=O)N(Cc2ccc(Cl)cc2)c2ccccc21)c1ccccc1 [Example 26, N′-[(3Z)-1-(4-chlorobenzyl)-2-oxo-1,2-dihydro-3H-indol-3-ylidene]benzohydrazide]
hCB2 receptor; [4]
  EC50: 131 ± 1.7 nM
hCB2 receptor; [5]
  Emax: 39.8%
[1]; [6]
  inhibition at 1 µM: 94.5 ± 0.8%
[2]; [7]
  inhibition at 1 µM: 22 ± 1.6%
CB1; [8]
  EC50: 895.6 ± 1.2 nM
CB1; [5]
  Emax: 72%

## CCCCCCN1C(=O)/C(=N\NC(=O)Cc2ccccc2)c2ccccc21 [Example 7, Phenylacetic acid [1-n-hexyl-2-oxo-1,2-dihydro-indol-3-ylidene]-hydrazide]
hCB2 receptor; CB2 Functional Activity
  % Activation Average: 45.79%
  Compound Activity: Agonist
hCB2 receptor; CB2 Functional Activity, read-out: EC50 (nM) for GTP Binding
  EC50: 189 nM
hCB2 receptor; Table 7, mean of two determinations, read-out: [35S]GTP-γ-S (hCB2) EC50 (nM ± SEM)
  EC50: 188.7 ± 1.3 nM
hCB2 receptor; [9]
  Emax: 45.8%
[1]; CB1, Test Concentration 1.0E−05 (MD)
  % Inhibition of Control Specific Binding: 98%
[1]; CB1, Test Concentration 1.0E−05 (MD), 1st determination
  % of Control Specific Binding 1st: 0.9%
[1]; CB1, Test Concentration 1.0E−05 (MD), 2nd determination
  % of Control Specific Binding 2nd: 2.6%
[1]; CB1, Test Concentration 1.0E−05 (MD), mean
  % of Control Specific Binding Mean: 1.8%
[1]; Table 3, concentration not given
  % Inhibition of Control Specific Binding CB1: 98%
[1]; at 10 μM, specific binding of [3H]-CP55940
  inhibition at 10 µM: 98.2 ± 0.8%
[2]; CB2, Test Concentration 1.0E−05 (MD)
  % Inhibition of Control Specific Binding: 92%
[2]; CB2, Test Concentration 1.0E−05 (MD), 1st determination
  % of Control Specific Binding 1st: 8.4%
[2]; CB2, Test Concentration 1.0E−05 (MD), 2nd determination
  % of Control Specific Binding 2nd: 8.5%
[2]; CB2, Test Concentration 1.0E−05 (MD), mean
  % of Control Specific Binding Mean: 8.5%
[2]; Table 4, concentration not given
  % Inhibition of Control Specific Binding CB2: 92%
[2]; read-out: % inhibition hCB2 receptor, at 10 μM, specific binding of [3H]-WIN55212-2
  inhibition at 10 µM: 91.5 ± 0.1%
CB1; CB1 Functional Activity
  % Activation Average: 71.88%
  Compound Activity: Agonist
CB1; CB1 Functional Activity, read-out: EC50 (nM) for GTP Binding
  EC50: 459 nM
CB1; Table 7, mean of two determinations, read-out: [35S]GTP-γ-S (hCB1) EC50 (nM ± SEM)
  EC50: 459 ± 1.1 nM
CB1; [9]
  Emax: 71.9%

## CCCCCCN1C(=O)/C(=N\NC(=O)c2ccccc2)c2cccc(Cl)c21 [Example 29, N′-[(3Z)-7-chloro-1-hexyl-2-oxo-1,2-dihydro-3H-indol-3-ylidene]benzohydrazide]
hCB2 receptor; [4]
  EC50: 645.5 ± 1.3 nM
hCB2 receptor; [5]
  Emax: 64.8%
[1]; [6]
  inhibition at 1 µM: 60 ± 1%
[2]; [7]
  inhibition at 1 µM: 29 ± 4.5%

## CCCCCCC(C)(C)c1ccc([C@@H]2C[C@H](O)CC[C@H]2CCCO)c(O)c1 [CP55,940, reference compound]
hCB2 receptor; [9]
  Emax: 100%
hCB2 receptor; [5]
  Emax: 100%
CB1; [9]
  Emax: 100%
CB1; [5]
  Emax: 100%

## CCCCCCN1C(=O)/C(=N\NC(=O)c2ccccc2)c2ccc(OC)cc21 [Example 36, N′-[(3Z)-1-hexyl-6-methoxy-2-oxo-1,2-dihydro-3H-indol-3-ylidene]benzohydrazide]
hCB2 receptor
  EC50: 85 nM
hCB2 receptor; Table 10, repeated experiment
  Emax: -95%

## CCCCCCN1C(=O)/C(=N\NC(=O)c2ccccc2)c2cccc(C)c21 [Example 28, N′-[(3Z)-1-hexyl-7-methyl-2-oxo-1,2-dihydro-3H-indol-3-ylidene]benzohydrazide]
hCB2 receptor; [4]
  EC50: 84 ± 2.2 nM
hCB2 receptor; [5]
  Emax: 34.2%
[1]; [6]
  inhibition at 1 µM: 67 ± 1.6%
[2]; [7]
  inhibition at 1 µM: 68 ± 3.7%

## CCCCCCN1C(=O)/C(=N\NC(=O)c2ccccc2)c2cccc(I)c21 [Example 30, N′-[(3Z)-1-hexyl-7-iodo-2-oxo-1,2-dihydro-3H-indol-3-ylidene]benzohydrazide]
hCB2 receptor
  Emax at 3 µM: 55%
[1]; [6]
  inhibition at 1 µM: 61 ± 2.5%
[2]; [7]
  inhibition at 1 µM: 66 ± 3.2%

## CCCCN1C(=O)/C(=N\NC(=O)c2ccccc2)c2ccc(OC)cc21 [Example 40, N′-[(3Z)-1-butyl-6-methoxy-2-oxo-1,2-dihydro-3H-indol-3-ylidene]benzohydrazide]
hCB2 receptor; Table 10, repeated experiment
  Emax: -95%
hCB2 receptor; [3]
  EC50: 85 nM

## COc1ccc2c(c1)N(CC1CCCCC1)C(=O)/C2=N\NC(=O)c1ccccc1 [Example 37, N′-[(3Z)-1-(cyclohexylmethyl)-6-methoxy-2-oxo-1,2-dihydro-3H-indol-3-ylidene]benzohydrazide]
hCB2 receptor; Table 10, repeated experiment
  Emax: -82%
hCB2 receptor; [3]
  EC50: 18 nM
CB1; Table 10, repeated experiment
  Emax: 40.8%
CB1; Table 10, repeated experiment, read-out: [35S]GTP-γ-S hCB1 EC50
  EC50: 61.2 nM
